Reference: ChEMBL document CHEMBL1201862, “PubChem BioAssay data set” (2004)
“And” between values parts separate entries of the source, which are not always exact repeats. Identical values can stand only once.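 Five compound concentrations were applied to cells in 96-well plates for 48 hours; endpoints were derived by simple linear interpolation of the resulting dose-response curve. GI50 = concentration required for 50% inhibition of growth.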 The source made the active and inactive calls. Cut-off read from the data, not from the text of the source: active = GI50 up to about 1.1 µM and inactive = higher.

Columns and labels:
Test in all cases: NCI-60 cell line screen, 48 h
[1] = test system: NCI/ADR-RES
[2] = test system: OVCAR-3
[3] = test system: PC-3
[4] = test system: SK-MEL-5
[5] = test system: HCC 2998
[6] = test system: SK-MEL-2
[7] = test system: T47D
[8] = test system: COLO 205
[9] = test system: K562
[10] = test system: UO-31
[11] = test system: OVCAR-5
[12] = test system: Malme-3M
[13] = test system: TK-10
[14] = test system: RXF 393
[15] = test system: DU-145
[16] = test system: UACC-257
[17] = test system: BT-549
[18] = test system: SNB-75
[19] = test system: HOP-62
[20] = test system: MDA-MB-231
[21] = test system: MOLT-4
[22] = test system: RPMI-8226
[23] = test system: SF-268
[24] = test system: LOX IMVI
[25] = test system: SNB-19
[26] = test system: NCI-H23
[27] = test system: HL-60
[28] = test system: CAKI-1
[29] = test system: A498
[30] = test system: HT-29
[31] = test system: SK-MEL-28
[32] = test system: MDA-N
[33] = test system: OVCAR-8
[34] = test system: HCT-15
[35] = test system: U-251
[36] = test system: HOP-92
[37] = test system: KM12
[38] = test system: MCF7
[39] = test system: IGROV-1
[40] = test system: CCRF-CEM
[41] = test system: OVCAR-4
[42] = test system: SW-620
[43] = test system: 786-0
[44] = test system: NCI-H522
[45] = test system: UACC-62
[46] = test system: SF-539
[47] = test system: HCT-116
[48] = test system: NCI-H460
[49] = test system: A549
[50] = test system: ACHN
[51] = test system: SN12C
[52] = test system: M14
[53] = test system: SK-OV-3
[54] = test system: NCI-H226
[55] = test system: SR
[56] = test system: EKVX
[57] = test system: SF-295
[58] = test system: Hs-578T
[59] = test system: MDA-MB-435

Measured: GI50

CC(C)=CCC/C(C)=C\CCC1(C)OC(=O)C2CC21 (stereo not drawn)
inactive: [1] 42.4 µM and 33.3 µM | [2] 51.5 µM and 27.5 µM | [3] 25.9 µM and 35.4 µM | [4] 43.6 µM and 41.1 µM | [5] 21.1 µM and 36.1 µM | [6] 45.6 µM | [7] > 100 µM and 63.4 µM | [8] 49.1 µM and 59.8 µM | [9] 22.4 µM and 17.2 µM | [10] 44.4 µM and 37.2 µM | [11] > 100 µM | [12] 80.2 µM | [13] 56.6 µM | [14] 40.6 µM | [15] 92.7 µM | [16] 73.6 µM and 47.3 µM | [17] 31.8 µM and 34 µM | [18] 55.7 µM | [19] > 100 µM and 53.5 µM | [20] 50.5 µM | [21] 18.1 µM and 22.7 µM | [22] 28.3 µM and 19.7 µM | [23] > 100 µM | [24] 15 µM and 27.7 µM | [25] > 100 µM and 71.1 µM | [26] 28.7 µM and 40.4 µM | [27] 18.5 µM and 12.3 µM | [28] 23.8 µM and 32.3 µM | [29] 98.9 µM

O=C(N/N=C/c1ccccc1)c1c(-c2cccnc2)cnc2ccccc12
48 µM: [34]
inactive: [30] 42.1 µM | [1] 69.5 µM | [2] > 100 µM | [3] > 100 µM | [4] 43.7 µM | [5] > 100 µM | [6] > 100 µM | [31] > 100 µM | [32] 29.2 µM | [8] > 100 µM | [9] 44.9 µM | [10] > 100 µM | [11] > 100 µM | [33] > 100 µM | [35] 56.4 µM | [12] > 100 µM | [13] > 100 µM | [36] > 100 µM | [37] 33 µM | [14] > 100 µM | [38] 48.2 µM | [39] 58.7 µM | [15] > 100 µM | [40] > 100 µM | [16] 88.9 µM | [41] > 100 µM | [42] 59.6 µM | [43] > 100 µM | [17] 79.4 µM | [18] 34.8 µM | [19] 87.7 µM | [44] > 100 µM | [45] 79.8 µM | [46] 70.3 µM | [47] 52.5 µM | [48] 61.1 µM | [21] > 100 µM | [22] > 100 µM | [23] > 100 µM | [49] > 100 µM | [25] > 100 µM | [50] > 100 µM | [51] > 100 µM | [26] > 100 µM | [27] 42.9 µM | [52] > 100 µM | [53] 84.5 µM | [54] > 100 µM | [55] 77.1 µM | [56] > 100 µM | [28] > 100 µM | [57] 12 µM

C[n+]1c(-c2ccc(/C=N/NC(=S)N/N=C/c3ccc(-c4cn5ccsc5[n+]4C)cc3)cc2)cn2ccsc21
> 100 µM: [34]
inactive: [30] 75.5 µM | [1] > 100 µM | [3] > 100 µM | [4] > 100 µM | [5] > 100 µM | [31] > 100 µM | [32] 45.2 µM | [7] > 100 µM | [8] > 100 µM | [9] > 10 µM | [10] > 100 µM | [11] > 100 µM | [33] > 100 µM | [35] > 100 µM | [13] > 100 µM | [58] > 100 µM | [37] > 100 µM | [38] > 100 µM | [39] > 100 µM | [40] 36.6 µM | [16] > 100 µM | [41] > 100 µM | [42] > 100 µM | [43] > 100 µM | [18] > 100 µM | [19] > 100 µM | [20] > 100 µM | [44] > 100 µM | [46] > 100 µM | [47] > 100 µM | [48] > 100 µM | [21] > 100 µM | [22] 62.1 µM | [23] > 100 µM | [49] > 100 µM | [25] > 100 µM | [50] > 100 µM | [51] > 100 µM | [27] > 100 µM | [52] > 100 µM | [59] 37.7 µM | [53] > 100 µM | [55] > 100 µM | [56] > 100 µM | [57] > 100 µM
